Literature values as cited in patent US8686040B2, “Method for treating anal pruritis and other perianal disorders” (RDD Pharma Ltd., priority 2008, dated 2014).

Legend:
[1] = relative to gabapentin

CC(C)C[C@H](CN)CC(=O)O [Pregabalin]
time to reach peak concentration after oral ingestion: ≤ 90 min
absorption when administered orally (oral): greater than 90%
lipid solubility [1]: higher lipid solubility than gabapentin
